Assay: mn = molality of the nth substance listed, in mol/kg
Settings: Liquid, Vibrating tube method

[Br-].[Br-].[Zn+2] [zinc bromide] + CCO
Settings	mass density [kg/m3]
373.14 K, 19874 kPa, m1 = 0.9305	872.91
373.14 K, 24846 kPa, m1 = 1.887	1005.15
373.14 K, 24985 kPa, m1 = 0.05681	753.48
373.14 K, 25624 kPa, m1 = 0.3043	790.48
373.14 K, 34851 kPa, m1 = 0.3043	799.55
373.14 K, 39921 kPa, m1 = 0.05681	767.81
373.15 K, 1032 kPa, m1 = 0.05681	723.97
373.15 K, 1228 kPa, m1 = 0.3043	761.13
373.15 K, 1745 kPa, m1 = 1.49	926.45
373.15 K, 4944 kPa, m1 = 0.4384	785.45
373.15 K, 5301 kPa, m1 = 1.49	931.02
373.15 K, 9796 kPa, m1 = 0.1696	752.88
373.15 K, 10025 kPa, m1 = 0.3043	772.61
373.15 K, 10059 kPa, m1 = 1.49	936.9
373.15 K, 14641 kPa, m1 = 0.1696	758.82
373.15 K, 14690 kPa, m1 = 0.9305	867.04
373.15 K, 14903 kPa, m1 = 0.4384	797.84
373.15 K, 15214 kPa, m1 = 1.49	942.98
373.15 K, 15627 kPa, m1 = 0.05681	742.91
373.15 K, 19954 kPa, m1 = 1.49	948.31
373.15 K, 20147 kPa, m1 = 0.3043	784.56
373.15 K, 24995 kPa, m1 = 0.9305	878.38
373.15 K, 25487 kPa, m1 = 1.49	954.2
373.15 K, 29987 kPa, m1 = 1.49	958.73
373.15 K, 30014 kPa, m1 = 0.05681	758.65
373.15 K, 34798 kPa, m1 = 0.4384	818.78
373.15 K, 35026 kPa, m1 = 1.49	963.54
373.15 K, 35841 kPa, m1 = 0.05681	764.21
373.15 K, 39669 kPa, m1 = 0.1696	784.45
373.15 K, 39689 kPa, m1 = 0.4384	823.15
373.15 K, 39845 kPa, m1 = 0.3043	804
373.15 K, 39954 kPa, m1 = 1.49	967.95
373.16 K, 5415 kPa, m1 = 0.3043	766.72
373.16 K, 10024 kPa, m1 = 0.05681	735.99
373.16 K, 15428 kPa, m1 = 0.3043	779.16
373.16 K, 29954 kPa, m1 = 0.3043	794.87
373.16 K, 34801 kPa, m1 = 0.1696	780.13
373.16 K, 34880 kPa, m1 = 1.887	1014.97
373.16 K, 34946 kPa, m1 = 0.9305	888.07
373.17 K, 1840 kPa, m1 = 0.9305	851.03
373.17 K, 5196 kPa, m1 = 0.9305	855.41
373.17 K, 9909 kPa, m1 = 0.9305	861.33
373.17 K, 19733 kPa, m1 = 0.1696	764.71
373.17 K, 19793 kPa, m1 = 0.4384	803.46
373.17 K, 20061 kPa, m1 = 0.05681	748.07
373.17 K, 29790 kPa, m1 = 0.9305	883.2
373.17 K, 39725 kPa, m1 = 1.887	1019.24
373.17 K, 39848 kPa, m1 = 0.9305	892.38
393.11 K, 5006 kPa, m1 = 0.1696	724.69
393.12 K, 5021 kPa, m1 = 1.887	958.47
393.12 K, 5106 kPa, m1 = 0.9305	833.37
393.12 K, 20028 kPa, m1 = 0.1696	745.51
393.12 K, 20063 kPa, m1 = 0.4384	784.5
393.12 K, 25074 kPa, m1 = 0.4384	790.6
393.12 K, 34785 kPa, m1 = 1.887	995.67
393.12 K, 34930 kPa, m1 = 0.4384	801.35
393.12 K, 39767 kPa, m1 = 1.887	1000.55
393.13 K, 9820 kPa, m1 = 0.4384	770.68
393.13 K, 19900 kPa, m1 = 1.887	978.73
393.13 K, 30105 kPa, m1 = 0.9305	865.29
393.13 K, 39972 kPa, m1 = 0.4384	806.21
393.14 K, 1801 kPa, m1 = 0.9305	828.39
393.14 K, 5624 kPa, m1 = 0.3043	745.3
393.14 K, 9870 kPa, m1 = 0.9305	840.24
393.14 K, 14926 kPa, m1 = 0.4384	777.8
393.14 K, 15321 kPa, m1 = 0.05681	722.2
393.14 K, 19767 kPa, m1 = 0.9305	853.32
393.14 K, 24945 kPa, m1 = 0.3043	771.16
393.14 K, 29892 kPa, m1 = 0.1696	757.28
393.14 K, 29921 kPa, m1 = 0.05681	740.47
393.14 K, 29972 kPa, m1 = 0.4384	796.15
393.15 K, 1241 kPa, m1 = 0.05681	701.02
393.15 K, 1627 kPa, m1 = 0.3043	739.2
393.15 K, 1798 kPa, m1 = 1.887	953.48
393.15 K, 1921 kPa, m1 = 1.49	903.69
393.15 K, 5026 kPa, m1 = 1.49	908.13
393.15 K, 10025 kPa, m1 = 0.3043	751.72
393.15 K, 10167 kPa, m1 = 0.1696	732.24
393.15 K, 10215 kPa, m1 = 0.05681	714.93
393.15 K, 10412 kPa, m1 = 1.49	915.55
393.15 K, 15026 kPa, m1 = 1.49	921.63
393.15 K, 19932 kPa, m1 = 0.05681	728.38
393.15 K, 20215 kPa, m1 = 1.49	928.15
393.15 K, 24815 kPa, m1 = 0.9305	859.38
393.15 K, 24872 kPa, m1 = 1.887	984.66
393.15 K, 25654 kPa, m1 = 1.49	934.64
393.15 K, 29841 kPa, m1 = 0.3043	776.76
393.15 K, 29885 kPa, m1 = 1.887	990.35
393.15 K, 29954 kPa, m1 = 1.49	939.52
393.15 K, 35014 kPa, m1 = 1.49	944.97
393.15 K, 39824 kPa, m1 = 0.05681	750.71
393.15 K, 39865 kPa, m1 = 0.3043	787.01
393.15 K, 39921 kPa, m1 = 1.49	949.96
393.15 K, 39924 kPa, m1 = 0.1696	767.7
393.16 K, 1957 kPa, m1 = 0.1696	720.03
393.16 K, 5064 kPa, m1 = 0.05681	707.12
393.16 K, 14857 kPa, m1 = 0.1696	738.74
393.16 K, 15924 kPa, m1 = 0.3043	759.83
393.16 K, 24739 kPa, m1 = 0.1696	751.32
393.16 K, 25067 kPa, m1 = 0.05681	734.81
393.16 K, 34854 kPa, m1 = 0.3043	782.09
393.16 K, 34855 kPa, m1 = 0.1696	762.63
393.16 K, 34890 kPa, m1 = 0.9305	870.24
393.16 K, 35621 kPa, m1 = 0.05681	746.57
393.16 K, 39922 kPa, m1 = 0.9305	875.04
393.17 K, 4784 kPa, m1 = 0.4384	763.23
393.17 K, 14838 kPa, m1 = 0.9305	847.01
393.17 K, 14975 kPa, m1 = 1.887	972.19
393.17 K, 19958 kPa, m1 = 0.3043	765.06
393.18 K, 10012 kPa, m1 = 1.887	965.38
393.19 K, 1568 kPa, m1 = 0.4384	758.24

From the NIST ThermoML archive (doi:10.1016/j.jct.2009.05.004)
